According to PubChem BioAssay (NCI):
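Assay format: 96-well plates, 48-hour exposure. The concentration for full growth arrest is given as TGI.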

Columns and labels:
Assay in all cases: DTP human tumour cell line panel, 48 h
A498 renal = test system: A498 renal
A549 NSCLC = test system: A549 NSCLC
ACHN renal = test system: ACHN renal
EKVX NSCLC = test system: EKVX NSCLC
HCT-15 colon = test system: HCT-15 colon
HOP-92 NSCLC = test system: HOP-92 NSCLC
HS 578T breast = test system: HS 578T breast
IGROV1 ovarian = test system: IGROV1 ovarian
KM12 colon = test system: KM12 colon
LOX IMVI melanoma = test system: LOX IMVI melanoma
MDA-MB-435 = test system: MDA-MB-435
MOLT-4 leukemia = test system: MOLT-4 leukemia
NCI-H460 lung = test system: NCI-H460 lung
NCI-H522 lung = test system: NCI-H522 lung
NCI/ADR-RES ovarian = test system: NCI/ADR-RES ovarian
OVCAR-4 ovarian = test system: OVCAR-4 ovarian
RPMI-8226 leukemia = test system: RPMI-8226 leukemia
RXF 393 renal = test system: RXF 393 renal
SW-620 colon = test system: SW-620 colon
UO-31 renal = test system: UO-31 renal

Row | SMILES | TGI (A498 renal) [µM] | TGI (A549 NSCLC) [µM] | TGI (ACHN renal) [µM] | TGI (EKVX NSCLC) [µM] | TGI (HCT-15 colon) [µM] | TGI (HOP-92 NSCLC) [µM] | TGI (HS 578T breast) [µM] | TGI (IGROV1 ovarian) [µM] | TGI (KM12 colon) [µM] | TGI (LOX IMVI melanoma) [µM] | TGI (MDA-MB-435) [µM] | TGI (MOLT-4 leukemia) [µM] | TGI (NCI-H460 lung) [µM] | TGI (NCI-H522 lung) [µM] | TGI (NCI/ADR-RES ovarian) [µM] | TGI (OVCAR-4 ovarian) [µM] | TGI (RPMI-8226 leukemia) [µM] | TGI (RXF 393 renal) [µM] | TGI (SW-620 colon) [µM] | TGI (UO-31 renal) [µM]
1 | CC(=O)NC1C(OC2C(CO)OC(OCC3OC(n4ccc(N)nc4=O)C(O)C3O)C(NC(C)=O)C2O)OC(CO)C(O)C1O (centres undefined) | > 100 | > 100 | > 100 | > 100 | > 100 | > 100 | > 100 | > 100 | > 100 | > 100 | > 100 | > 100 | > 100 | > 100 | > 100 | > 100 | > 100 | > 100 | > 100 | > 100
2 | CCOC(=O)N1CCN(c2nc(C)n(-c3ccccc3)c(=S)c2C#N)CC1 | > 100 | > 100 | > 100 | > 100 | > 100 | > 100 | > 100 | > 63.4 | > 100 | > 100 | > 100 | > 100 | > 100 | > 66.3 | > 100 | > 100 | > 100 | > 100 | > 100 | > 100
3 | O=C1N=NC(=O)N1c1cc(C(F)(F)F)cc(C(F)(F)F)c1 | 25.4 | 12 | 14.2 | 33.2 | 12 | 8.25 | 20.8 | 14.8 | 18.2 | 11.7 | 33.2 | 40.3 | 13.4 | 9.13 | 11.5 | 27.5 | 22.1 | 12.4 | > 45.6 | 7.89
4 | NCCCCN(CCCN)Cc1ccc2ccccc2c1 | > 100 | > 100 | 53.8 | > 100 | > 100 | > 100 | 42.9 | > 100 | > 100 | > 100 | > 100 | > 100 | 55.2 | 37.6 | > 100 | > 100 | > 100 | > 100 | > 100 | 71
5 | CNCCCNC1(c2cc3ccccc3s2)CCCCC1 | 14.1 | 20.4 | 26.9 | 26.4 | 21.7 | 14.8 | 29.1 | 25.5 | 16.3 | 9.94 | 5.86 | 7.48 | 9.09 | 19.1 | 29.9 | 27 | 6.18 | 12.2 | 26.3 | 7.36
6 | Cn1c(=O)cc(N=Nc2ccc(Cl)c(Cl)c2)[nH]c1=O | > 100 | > 100 | 47.4 | 51.4 | 38.9 | 80.4 | 94 | > 100 | > 100 | 34.3 | 40.5 | 61 | > 100 | 49.4 | 77.4 | 61.7 | 71.1 | 63.6 | 58.9 | > 100
7 | COc1ccc2oc(=O)c(-c3nc4ccccc4o3)cc2c1 | > 100 | > 100 | > 100 | > 100 | > 100 | > 100 | > 100 | > 100 | > 100 | > 100 | > 100 | > 100 | > 100 | > 100 | > 100 | > 100 | > 100 | > 100 | > 100 | > 100
8 | Cc1ccc([N+](=O)[O-])cc1S(=O)(=O)Nc1ccc(C2=NN(C(=O)c3ccccc3)C(c3cccs3)C2)cc1 (centres undefined) | 50.8 | > 100 | > 100 | 67.7 | > 100 | 55.3 | > 100 | > 100 | > 100 | > 100 | > 100 | > 100 | – | 70.8 | > 100 | > 100 | > 100 | 56.8 | > 100 | > 100
9 | NC(=NCCN1CCCCCCC1)NO | > 100 | > 100 | 43.4 | > 100 | > 100 | > 100 | > 100 | 92.6 | > 100 | > 100 | > 100 | > 100 | > 100 | > 100 | > 100 | > 100 | > 100 | > 100 | > 100 | > 100
10 | COC(=O)c1cc(C)ccc1C1CN=NC12Cc1cccc(C)c1C2=O (centres undefined) | > 100 | > 100 | > 100 | 95.6 | > 100 | > 100 | > 100 | > 100 | 79.7 | 53 | 61.8 | 54.7 | 72.3 | 89.6 | 77.9 | > 100 | 54.9 | > 100 | > 100 | > 100
11 | CCOC(=O)c1[nH]cc(C)c1-c1c[nH]c2ccccc12 | > 100 | > 100 | > 71.4 | > 100 | > 100 | > 74.4 | 61.7 | > 100 | > 100 | 40.2 | > 100 | 27.9 | > 87.5 | > 81.8 | 72.5 | > 100 | 41.9 | > 80 | > 100 | 48.1
